Measurements as given in patent publication US10745377B2, “Piperidine or piperazine linked imidazole and triazole derivatives and methods of use” (MERCK SHARP & DOHME CORP., priority 2013, dated 2020).

How the values were obtained:
Format in all cases: biochemical
CYP2C9 = biological target: T1, CYP2C9 (Homo sapiens, UniProt P11712); experiment: Cocktail assay for CYPs in human liver microsomes: CYP2C9 (diclofenac 4′-hydroxylation); conditions: human liver microsomes 0.1 mg/mL, 5 μM diclofenac, 10 min at 37° C., 6 concentrations up to 10 μM; read-out: IC50 (nM) CYP2C9
T1 construct: 0.1 mg/mL protein human liver microsomes (BD Gentest); tissue BD Gentest; host or cells: human liver microsomes
T1 sequence (P11712 whole entry): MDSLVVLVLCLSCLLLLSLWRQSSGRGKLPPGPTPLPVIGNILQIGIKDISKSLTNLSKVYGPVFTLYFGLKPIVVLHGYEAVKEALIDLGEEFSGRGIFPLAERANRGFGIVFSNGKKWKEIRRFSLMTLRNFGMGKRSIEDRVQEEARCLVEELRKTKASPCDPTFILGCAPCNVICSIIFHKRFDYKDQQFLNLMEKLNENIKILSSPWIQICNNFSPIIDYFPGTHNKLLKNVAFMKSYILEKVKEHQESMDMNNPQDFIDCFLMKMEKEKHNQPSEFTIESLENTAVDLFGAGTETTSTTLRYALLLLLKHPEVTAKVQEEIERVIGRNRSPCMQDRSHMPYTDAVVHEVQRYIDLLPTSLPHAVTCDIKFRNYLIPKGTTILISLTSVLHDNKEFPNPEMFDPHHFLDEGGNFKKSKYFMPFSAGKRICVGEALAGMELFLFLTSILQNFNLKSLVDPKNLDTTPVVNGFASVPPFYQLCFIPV
Experimental: (§1) Determination of IC50 in a Cocktail Assay for CYPs 1A2, 2C9, 2C19, 2D6 and 3A4
(§2) This assay was performed in a standard 96-well plate design. […] The incubation substrate mix contains 10 μM phenacetin (1A2), 5 μM diclofenac (2C9), 30 μM mephenytoin (2C19), 5 μM dextromethorphan (2D6) and 2 μM midazolam (3A4), 0.1 mg/mL protein human liver microsomes (BD Gentest), 1 mM NAPDH, 3.3 mM MgCl2 and 100 mM potassium phosphate buffer (pH 7.4). The production of the metabolite of each probe substrate was determined after incubation for 10 min at 37° C. Quantitation of the metabolite peak area ratio against an internal standard (tolbutamide) was determined by LC/MS/MS analysis following acetonitrile treatment of the incubations.
(§3) Samples were analyzed in the MRM mode with a SCIEX API-4000 mass spectrometer (Applied Biosystems, Foster City, Calif.), with a Shimadzu LC-20 AD pump (Shimadzu corporation, Kyoto, JP) and a CTC PAL autosampler (Agilent Technologies, Switzerland). A Phenomenex, Luna, 5 μm, 100 A, 2.00×30 mm HPLC column was used for the separation. The mobile phases were: (A) 0.1% formic acid in water and (B) 0.1% formic acid in acetonitrile. The binary gradient was as follows.
(§4) The mass spectrum parameters were as follows:
(§5) The LC/MS/MS parameters for the analytes were as follows.
(§6) The peak area ratio of the analyte to the internal standard was used to quantify the metabolite. The values of peak area ratios in the presence of test compound were compared to those of maximum or minimum controls and were expressed as % inhibition by interpolating between the maximum and minimum peak area ratios. Incubations with no inhibitor were defined as the maxima.
(§7) The following equation was used to calculate the % inhibition: [1−[(X−Low control)/(High control−Low control)]]*100
(§8) For the IC50 calculation, SigmaPlot was used to plot the mean % inhibition versus the test compound concentrations and for non-linear regression analysis of the data. Depending on the range of data points defining the inhibition curve, the data may have been fit to the 4-parameter logistic equation.

CYP2D6 = biological target: T2, CYP2D6 (Homo sapiens, UniProt P10635); experiment: Cocktail assay for CYPs in human liver microsomes: CYP2D6 (dextromethorphan O-demethylation); conditions: human liver microsomes 0.1 mg/mL, 5 μM dextromethorphan, 10 min at 37° C., 6 concentrations up to 10 μM; read-out: IC50 (nM) CYP2D6
T2 construct: 0.1 mg/mL protein human liver microsomes (BD Gentest); tissue BD Gentest; host or cells: human liver microsomes
T2 sequence (P10635 whole entry): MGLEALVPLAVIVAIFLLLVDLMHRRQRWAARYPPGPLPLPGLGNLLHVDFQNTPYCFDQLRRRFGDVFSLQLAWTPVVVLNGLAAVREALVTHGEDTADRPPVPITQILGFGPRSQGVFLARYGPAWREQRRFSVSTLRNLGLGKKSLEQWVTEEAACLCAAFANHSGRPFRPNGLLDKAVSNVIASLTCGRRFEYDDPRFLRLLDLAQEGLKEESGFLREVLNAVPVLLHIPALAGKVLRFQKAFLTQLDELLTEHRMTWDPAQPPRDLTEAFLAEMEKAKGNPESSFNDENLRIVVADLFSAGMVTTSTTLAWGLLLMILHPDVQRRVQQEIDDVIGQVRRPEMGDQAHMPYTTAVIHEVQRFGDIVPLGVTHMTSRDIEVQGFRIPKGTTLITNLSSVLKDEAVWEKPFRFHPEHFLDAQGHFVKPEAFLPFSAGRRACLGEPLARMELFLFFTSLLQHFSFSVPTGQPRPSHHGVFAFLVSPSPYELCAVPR
Experimental: as §1, §2, §3, §4, §5, §6, §7, §8

CYP3A4 = biological target: T3, CYP3A4 (Homo sapiens, UniProt P08684); experiment: Cocktail assay for CYPs in human liver microsomes: CYP3A4 (midazolam 1′-hydroxylation); conditions: human liver microsomes 0.1 mg/mL, 2 μM midazolam, 10 min at 37° C., 6 concentrations up to 10 μM; read-out: IC50 (nM) CYP3A4
T3 construct: 0.1 mg/mL protein human liver microsomes (BD Gentest); tissue BD Gentest; host or cells: human liver microsomes
T3 sequence (P08684 whole entry): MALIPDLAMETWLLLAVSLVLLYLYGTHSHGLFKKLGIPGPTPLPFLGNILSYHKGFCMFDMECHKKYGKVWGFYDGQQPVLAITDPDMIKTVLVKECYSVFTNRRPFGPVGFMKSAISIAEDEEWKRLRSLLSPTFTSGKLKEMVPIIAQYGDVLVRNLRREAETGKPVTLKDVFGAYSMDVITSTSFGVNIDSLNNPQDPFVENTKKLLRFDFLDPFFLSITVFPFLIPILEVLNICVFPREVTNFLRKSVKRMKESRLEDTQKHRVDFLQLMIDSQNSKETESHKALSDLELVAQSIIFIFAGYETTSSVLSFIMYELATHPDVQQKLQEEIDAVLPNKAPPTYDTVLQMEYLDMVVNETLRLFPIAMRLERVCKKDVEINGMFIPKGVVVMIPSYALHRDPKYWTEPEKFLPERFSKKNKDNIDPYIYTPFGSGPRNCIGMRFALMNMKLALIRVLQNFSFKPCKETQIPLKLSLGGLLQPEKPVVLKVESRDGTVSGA

CYP1A2 = biological target: T4, CYP1A2 (Homo sapiens, UniProt P05177); experiment: Cocktail assay for CYPs in human liver microsomes: CYP1A2 (phenacetin O-deethylation); conditions: human liver microsomes 0.1 mg/mL, 10 μM phenacetin, 10 min at 37° C., 6 concentrations up to 10 μM; read-out: IC50 (nM) CYP1A2
T4 construct: 0.1 mg/mL protein human liver microsomes (BD Gentest); tissue BD Gentest; host or cells: human liver microsomes
T4 sequence (P05177 1-516): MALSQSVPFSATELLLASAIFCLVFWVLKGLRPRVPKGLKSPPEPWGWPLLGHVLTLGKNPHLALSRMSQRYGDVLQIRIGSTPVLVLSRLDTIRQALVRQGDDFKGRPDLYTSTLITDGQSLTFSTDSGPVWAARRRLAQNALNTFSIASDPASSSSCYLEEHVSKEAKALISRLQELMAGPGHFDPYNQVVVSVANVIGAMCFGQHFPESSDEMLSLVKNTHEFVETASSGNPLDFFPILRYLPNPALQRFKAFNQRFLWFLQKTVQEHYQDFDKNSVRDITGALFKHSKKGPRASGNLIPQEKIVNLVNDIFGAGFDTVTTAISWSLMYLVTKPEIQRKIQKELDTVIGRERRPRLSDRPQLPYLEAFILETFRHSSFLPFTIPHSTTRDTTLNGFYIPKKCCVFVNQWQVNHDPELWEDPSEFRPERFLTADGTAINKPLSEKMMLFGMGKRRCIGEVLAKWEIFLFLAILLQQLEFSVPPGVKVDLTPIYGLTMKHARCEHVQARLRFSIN
Experimental: as §1, §2, §3, §4, §5, §6, §7, §8

CYP2C19 = biological target: T5, CYP2C19 (Homo sapiens, UniProt P33261); experiment: Cocktail assay for CYPs in human liver microsomes: CYP2C19 (mephenytoin 4′-hydroxylation); conditions: human liver microsomes 0.1 mg/mL, 30 μM mephenytoin, 10 min at 37° C., 6 concentrations up to 10 μM; read-out: IC50 (nM) CYP2C19
T5 construct: 0.1 mg/mL protein human liver microsomes (BD Gentest); tissue BD Gentest; host or cells: human liver microsomes
T5 sequence (P33261 whole entry): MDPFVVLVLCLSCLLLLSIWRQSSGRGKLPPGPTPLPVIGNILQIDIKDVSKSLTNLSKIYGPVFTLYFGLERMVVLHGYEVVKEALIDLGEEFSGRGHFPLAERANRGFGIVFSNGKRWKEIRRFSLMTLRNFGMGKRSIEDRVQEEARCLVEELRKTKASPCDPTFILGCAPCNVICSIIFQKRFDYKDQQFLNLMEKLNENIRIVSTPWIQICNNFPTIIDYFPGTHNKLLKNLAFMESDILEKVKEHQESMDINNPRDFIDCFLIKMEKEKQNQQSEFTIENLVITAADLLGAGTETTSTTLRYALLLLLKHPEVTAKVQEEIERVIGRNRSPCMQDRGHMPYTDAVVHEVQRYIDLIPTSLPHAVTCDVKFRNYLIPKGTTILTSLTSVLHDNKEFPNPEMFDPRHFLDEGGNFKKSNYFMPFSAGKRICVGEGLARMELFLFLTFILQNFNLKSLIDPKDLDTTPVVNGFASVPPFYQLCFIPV
Experimental: as §1, §2, §3, §4, §5, §6, §7, §8

| Compound | IC50 (CYP2C9) [nM] | IC50 (CYP2D6) [nM] | IC50 (CYP3A4) [nM] | IC50 (CYP1A2) [nM] | IC50 (CYP2C19) [nM] |
| --- | --- | --- | --- | --- | --- |
| CC(c1ccccc1-c1ccc(F)cc1)n1cncc1CN1CCCNC(=O)C1 (centres unmarked) [Compound 18, 4-((1-(1-(4′-fluoro-[1,1′-biphenyl]-2-yl)ethyl)-1H-imidazol-5-yl)methyl)-1,4-diazepan-2-one] | > 10000 | > 10000 | 29 | > 10000 | 4790 |
| C[C@H](c1ccc(C#N)cc1)n1cncc1CN1CCC2(CC1)C(=O)NCN2c1ccccc1 [Compound 19, (R)-4-(1-(5-((4-oxo-1-phenyl-1,3,8-triazaspiro[4.5]decan-8-yl)methyl)-1H-imidazol-1-yl)ethyl) benzonitrile] | 1660 | 9970 | 50 | > 10000 | 2420 |
| CC(c1ccccc1-c1ccc(F)cc1)n1cncc1CN1CCS(=O)(=O)CC1 (centres unmarked) [Compound 20, 4-((1-(1-(4′-fluoro-[1,1′-biphenyl]-2-yl)ethyl)-1H-imidazol-5-yl)methyl) thiomorpholin 1,1-dioxide] | > 10000 | > 10000 | 35 | > 10000 | 9910 |
| C[C@H](c1ccc(C#N)cc1)n1cncc1CN1CCC(c2nc3ccccc3o2)CC1 [Compound 21, (R)-4-(1-(5-((4-(benzo[d]oxazol-2-yl)piperidin-1-yl)methyl)-1H-imidazol-1-yl)ethyl) benzonitrile] | 4080 | 7520 | 35 | > 10000 | 8700 |
| C[C@H](c1ccc(C#N)cc1)n1cncc1CN1CCC(c2nc3ccccc3s2)CC1 [Compound 22, (R)-4-(1-(5-((4-(benzo[d]thiazol-2-yl)piperidin-1-yl)methyl)-1H-imidazol-1-yl)ethyl) benzonitrile] | 1760 | 3210 | 26 | > 10000 | 4690 |
| C[C@H](c1ccc(F)cc1)n1cncc1CN1CCN(c2nc3ccccc3o2)CC1 [Compound 23, (R)-2-(4-((1-(1-(4-fluorophenyl)ethyl)-1H-imidazol-5-yl)methyl)piperazin-1-yl)benzo[d]oxazole] | 4370 | 2920 | 7 | > 10000 | 3160 |
| C[C@H](c1ccc(C#N)cc1)n1cncc1CN1CCN(c2nc3ccccc3o2)CC1 [Compound 24, (R)-4-(1-(5-((4-(benzo[d]oxazol-2-yl)piperazin-1-yl)methyl)-1H-imidazol-1-yl)ethyl) benzonitrile] | 3430 | 3080 | 11 | > 10000 | 2260 |
| N#Cc1ccc(C2(n3cncc3CN3CCN(c4nc5ccccc5o4)CC3)CC2)cc1 [Compound 25, 4-(1-(5-((4-(benzo[d]oxazol-2-yl)piperazin-1-yl)methyl)-1H-imidazol-1-yl)cyclopropyl) benzonitrile] | 9590 | 2910 | 28 | > 10000 | > 10000 |
| CC(C)OCCn1cncc1CN1CCN(c2nc3ccccc3o2)CC1 [Compound 26, 2-(4-((1-(2-isopropoxyethyl)-1H-imidazol-5-yl)methyl)piperazin-1-yl)benzo[d]oxazole] | > 10000 | 1040 | 21 | > 10000 | > 10000 |
| CC(C)C(C)n1cncc1CN1CCN(c2nc3ccccc3o2)CC1 (centres unmarked) [Compound 27, 2-(4-((1-(3-methylbutan-2-yl)-1H-imidazol-5-yl)methyl)piperazin-1-yl)benzo[d]oxazole] | > 10000 | 1760 | 9 | > 10000 | > 10000 |
| C[C@H](c1ccc(C#N)cc1)n1cncc1CN1CCN(c2nc3cccc(F)c3o2)CC1 [Compound 28, (R)-4-(1-(5-((4-(7-fluorobenzo[d]oxazol-2-yl)piperazin-1-yl)methyl)-1H-imidazol-1-yl)ethyl)benzonitrile] | 3870 | 1110 | 10 | > 10000 | 3570 |
| Cc1cccc2nc(N3CCN(Cc4cncn4[C@H](C)c4ccc(C#N)cc4)CC3)oc12 [Compound 29, (R)-4-(1-(5-((4-(7-methylbenzo[d]oxazol-2-yl)piperazin-1-yl)methyl)-1H-imidazol-1-yl)ethyl)benzonitrile] | 2490 | 2770 | 20 | > 10000 | 4970 |
| C[C@H](c1ccc(C#N)cc1)n1cncc1CN1CCN(c2nc3ccc(F)cc3o2)CC1 [Compound 30, (R)-4-(1-(5-((4-(6-fluorobenzo[d]oxazol-2-yl)piperazin-1-yl)methyl)-1H-imidazol-1-yl)ethyl)benzonitrile] | 5550 | 1620 | 7 | > 10000 | 8400 |
| C[C@H](c1ccc(C#N)cc1)n1cncc1CN1CCN(c2nc3ccc(F)c(F)c3o2)CC1 [Compound 31, (R)-4-(1-(5-((4-(6,7-difluorobenzo[d]oxazol-2-yl)piperazin-1-yl)methyl)-1H-imidazol-1-yl)ethyl) benzonitrile] | 2320 | 2870 | 7 | > 10000 | 3740 |
| CC(C1CCOCC1)n1cncc1CN1CCN(c2nc3ccccc3o2)CC1 (centres unmarked) [Compound 32, 2-(4-((1-(1-(tetra-hydro-2H-pyran-4-yl)ethyl)-1H-imidazol-5-yl)methyl)piperazin-1-yl)benzo[d] oxazole] | > 10000 | > 10000 | 24 | > 10000 | > 10000 |
| c1ccc(CCn2cncc2CN2CCN(c3nc4ccccc4o3)CC2)nc1 [Compound 33, 2-(4-((1-(2-(pyridin-2-yl)ethyl)-1H-imidazol-5-yl)methyl)piperazin-1-yl)benzo[d] oxazole] | 6520 | 2090 | 35 | > 10000 | ≥ 10000 |
| CC(c1ccc(S(C)(=O)=O)cc1)n1cncc1CN1CCN(c2nc3ccccc3o2)CC1 (centres unmarked) [Compound 34, 2-(4-((1-(1-(4-(methylsulfonyl)phenyl)ethyl)-1H-imidazol-5-yl)methyl)piperazin-1-yl)benzo [d]oxazole] | ≥ 10000 | 2520 | 8 | > 10000 | ≥ 10000 |
| CC(C1CCOCC1)n1cncc1CN1CCN(c2nc3ccc(F)c(F)c3o2)CC1 (centres unmarked) [Compound 35, 6,7-difluoro-2-(4-((1-(1-(tetrahydro-2H-pyran-4-yl)ethyl)-1H-imidazol-5-yl)methyl)piperazin-1-yl) benzo[d]oxazole] | > 10000 | > 10000 | 4 | > 10000 | > 10000 |
| CC(Cn1cncc1CN1CCN(c2nc3ccccc3o2)CC1)C(F)(F)F (centres unmarked) [Compound 36, 2-(4-((1-(3,3,3-trifluoro-2-methylpropyl)-1H-imidazol-5-yl)methyl)piperazin-1-yl)benzo[d]oxazole] | 6980 | 1720 | 45 | > 10000 | 4260 |
| Fc1ccc(CCn2cncc2CN2CCN(c3nc4ccccc4o3)CC2)cc1 [Compound 37, 2-(4-((1-(4-fluorophenethyl)-1H-imidazol-5-yl)methyl)piperazin-1-yl)benzo[d]oxazole] | 4360 | 1410 | 8 | > 10000 | 5380 |
| COc1ccc2nc(N3CCN(Cc4cncn4[C@H](C)c4ccc(C#N)cc4)CC3)sc2c1 [Compound 38, (R)-4-(1-(5-((4-(6-methoxybenzo[d]thiazol-2-yl)piperazin-1-yl)methyl)-1H-imidazol-1-yl)ethyl)benzonitrile] | 6470 | 3690 | 31 | > 10000 | 4720 |
| C[C@H](c1ccc(C#N)cc1)n1cncc1CN1CCN(c2nc3ccccc3[nH]2)CC1 [Compound 39, (R)-4-(1-(5-((4-(1H-benzo[d]imidazol-2-yl)piperazin-1-yl)methyl)-1H-imidazol-1-yl)ethyl)benzonitrile] | > 10000 | 1580 | 23 | > 10000 | > 10000 |
